System: 889142-216-R-J1-PDC complex spheroid viability
Assay: Anticancer human tumor 889142-216-R-J1-PDC patient-derived bladder carcinoma cell line growth inhibition [POLQ]
Conditions: for IC50: curve of first compound; for viability, T/C: stronger effect = lower value; active = viability on the fitted dose curve at most 10% of control; inactive = the rest
In short: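 PDC + HUVEC + MSC complex spheroids; POLQ inhibitors ± partner drugs; top conc. at/near clinical Cmax, else 10 microM (SN-38 1 microM), half-log dilutions; 37 degrees C, 5% CO2.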

[1] = second compound 0.0316 µM, first compound 0.0316 µM
[2] = second compound 0.0316 µM, first compound 0.1 µM
[3] = second compound 0.0316 µM, first compound 0.316 µM
[4] = second compound 0.0316 µM, first compound 1 µM
[5] = second compound 0.0316 µM, first compound 3.16 µM
[6] = second compound 0.0316 µM, first compound 10 µM
[7] = second compound 0.1 µM, first compound 0.0316 µM
[8] = second compound 0.1 µM, first compound 0.1 µM
[9] = second compound 0.1 µM, first compound 0.316 µM
[10] = second compound 0.1 µM, first compound 1 µM
[11] = second compound 0.1 µM, first compound 3.16 µM
[12] = second compound 0.1 µM, first compound 10 µM
[13] = second compound 0.316 µM, first compound 0.0316 µM
[14] = second compound 0.316 µM, first compound 0.1 µM
[15] = second compound 0.316 µM, first compound 0.316 µM
[16] = second compound 0.316 µM, first compound 1 µM
[17] = second compound 0.316 µM, first compound 3.16 µM
[18] = second compound 0.316 µM, first compound 10 µM
[19] = second compound 1 µM, first compound 0.0316 µM
[20] = second compound 1 µM, first compound 0.1 µM
[21] = second compound 1 µM, first compound 0.316 µM
[22] = second compound 1 µM, first compound 1 µM
[23] = second compound 1 µM, first compound 3.16 µM
[24] = second compound 1 µM, first compound 10 µM
[25] = second compound 3.16 µM, first compound 0.0316 µM
[26] = second compound 3.16 µM, first compound 0.1 µM
[27] = second compound 3.16 µM, first compound 0.316 µM
[28] = second compound 3.16 µM, first compound 1 µM
[29] = second compound 3.16 µM, first compound 3.16 µM
[30] = second compound 3.16 µM, first compound 10 µM
[31] = second compound 10 µM, first compound 0.0316 µM
[32] = second compound 10 µM, first compound 0.1 µM
[33] = second compound 10 µM, first compound 0.316 µM
[34] = second compound 10 µM, first compound 1 µM
[35] = second compound 10 µM, first compound 3.16 µM
[36] = second compound 10 µM, first compound 10 µM
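Note: spheroids exposed to compounds for seven days.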
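Throughout, for viability, T/C: 100% = DMSO vehicle control viability.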

CCc1cc2c(N3CCc4c(cc(Cn5ccnc5)cc4-c4cn(C)nc4C(F)(F)F)C3=O)ccnc2c(OC)n1 + COC1C(OC(N)=O)C(O)C(Oc2ccc3c(O)c(NC(=O)c4ccc(O)c(CC=C(C)C)c4)c(=O)oc3c2C)OC1(C)C
inactive: viability, T/C [1] 120% | viability, T/C [2] 109% | viability, T/C [3] 119% | viability, T/C [4] 95.5% | viability, T/C [5] 69.1% | viability, T/C [6] 83% | viability, T/C [7] 101% | viability, T/C [8] 117% | viability, T/C [9] 98.3% | viability, T/C [10] 111% | viability, T/C [11] 105% | viability, T/C [12] 62% | viability, T/C [13] 105% | viability, T/C [14] 106% | viability, T/C [15] 102% | viability, T/C [16] 115% | viability, T/C [17] 96.1% | viability, T/C [18] 64.3% | viability, T/C [19] 112% | viability, T/C [20] 130% | viability, T/C [21] 107% | viability, T/C [22] 102% | viability, T/C [23] 83.9% | viability, T/C [24] 77.7% | viability, T/C [25] 95.6% | viability, T/C [26] 106% | viability, T/C [27] 117% | viability, T/C [28] 94.2% | viability, T/C [29] 95% | viability, T/C [30] 77.9% | viability, T/C [31] 122% | viability, T/C [32] 103% | viability, T/C [33] 112% | viability, T/C [34] 109% | viability, T/C [35] 91.6% | viability, T/C [36] 67.3%
> 10 µM: IC50 (second compound 0.0316 µM) | IC50 (second compound 0.1 µM) | IC50 (second compound 0.316 µM) | IC50 (second compound 1 µM) | IC50 (second compound 3.16 µM) | IC50 (second compound 10 µM)

COc1cc2cc(C(=O)CCC(=O)O)sc2cc1OC + COC1C(OC(N)=O)C(O)C(Oc2ccc3c(O)c(NC(=O)c4ccc(O)c(CC=C(C)C)c4)c(=O)oc3c2C)OC1(C)C
inactive: viability, T/C [1] 95.1% | viability, T/C [2] 93% | viability, T/C [3] 82.4% | viability, T/C [4] 114% | viability, T/C [5] 109% | viability, T/C [6] 70% | viability, T/C [7] 103% | viability, T/C [8] 106% | viability, T/C [9] 102% | viability, T/C [10] 96.9% | viability, T/C [11] 92.5% | viability, T/C [12] 81.1% | viability, T/C [13] 118% | viability, T/C [14] 120% | viability, T/C [15] 116% | viability, T/C [16] 90.6% | viability, T/C [17] 110% | viability, T/C [18] 83.6% | viability, T/C [19] 113% | viability, T/C [20] 106% | viability, T/C [21] 121% | viability, T/C [22] 113% | viability, T/C [23] 118% | viability, T/C [24] 83.9% | viability, T/C [25] 91.2% | viability, T/C [26] 113% | viability, T/C [27] 103% | viability, T/C [28] 102% | viability, T/C [29] 111% | viability, T/C [30] 101% | viability, T/C [31] 103% | viability, T/C [32] 93.2% | viability, T/C [33] 111% | viability, T/C [34] 92.8% | viability, T/C [35] 103% | viability, T/C [36] 88.2%
> 10 µM: IC50 (second compound 0.0316 µM) | IC50 (second compound 0.1 µM) | IC50 (second compound 0.316 µM) | IC50 (second compound 1 µM) | IC50 (second compound 3.16 µM) | IC50 (second compound 10 µM)

COc1ccc([C@@H](O)c2cc(-c3ncnc4cc(N5CCOCC5)ccc34)c(F)cc2Cl)nn1 + COC1C(OC(N)=O)C(O)C(Oc2ccc3c(O)c(NC(=O)c4ccc(O)c(CC=C(C)C)c4)c(=O)oc3c2C)OC1(C)C
3.64 µM: IC50 (second compound 3.16 µM)
> 10 µM: IC50 (second compound 0.1 µM)
4.25 µM: IC50 (second compound 0.0316 µM)
6.29 µM: IC50 (second compound 0.316 µM)
inactive: viability, T/C [1] 88.8% | viability, T/C [2] 88.3% | viability, T/C [3] 63.9% | viability, T/C [4] 63% | viability, T/C [5] 55.6% | viability, T/C [6] 41.5% | viability, T/C [7] 104% | viability, T/C [8] 125% | viability, T/C [9] 76.2% | viability, T/C [10] 62.7% | viability, T/C [11] 55.7% | viability, T/C [12] 35.9% | viability, T/C [13] 92.2% | viability, T/C [14] 104% | viability, T/C [15] 87% | viability, T/C [16] 79.1% | viability, T/C [17] 63.4% | viability, T/C [18] 41.4% | viability, T/C [19] 90.3% | viability, T/C [20] 112% | viability, T/C [21] 86.7% | viability, T/C [22] 59.8% | viability, T/C [23] 60.3% | viability, T/C [24] 37.3% | viability, T/C [25] 81.3% | viability, T/C [26] 120% | viability, T/C [27] 77.6% | viability, T/C [28] 66.9% | viability, T/C [29] 56.9% | viability, T/C [30] 39.8% | viability, T/C [31] 98.2% | viability, T/C [32] 82.1% | viability, T/C [33] 104% | viability, T/C [34] 74.8% | viability, T/C [35] 59.6% | viability, T/C [36] 32.9%
4.53 µM: IC50 (second compound 10 µM)
2.87 µM: IC50 (second compound 1 µM)

Reference: PubChem BioAssay AID1963831 (Molecular Pharmacology Branch, DTP, NCI, 2024)
